Laboratory results taken from PMC6858323, “Multiple conformations facilitate PilT function in the type IV pilus” (Nature Communications, 2019).

What was measured:
[1] = target: T1, PilT^Gm (PilT4 from Geobacter metallireducens) (Geobacter metallireducens, UniProt Q39VU6); experiment: X-ray crystal structure (OCOCOC); settings: preincubated with Mg2+ and ATP, unbound nucleotide removed, pH 7.6; nucleotide-binding site
T1 construct: gene pilT-4; hexamer; domains N2D residues 1-100, CTD 101-353

[2] = target: T1, PilT^Gm (PilT4 from Geobacter metallireducens); experiment: X-ray crystal structure (anisotropic, about […] A); settings: 2 mM ANP, 2 mM MgCl2, pH 7.9 reservoir; four of six nucleotide-binding sites, ADP in the other two; CCOCCO conformation

T1 sequence (Q39VU6 entry or part of it): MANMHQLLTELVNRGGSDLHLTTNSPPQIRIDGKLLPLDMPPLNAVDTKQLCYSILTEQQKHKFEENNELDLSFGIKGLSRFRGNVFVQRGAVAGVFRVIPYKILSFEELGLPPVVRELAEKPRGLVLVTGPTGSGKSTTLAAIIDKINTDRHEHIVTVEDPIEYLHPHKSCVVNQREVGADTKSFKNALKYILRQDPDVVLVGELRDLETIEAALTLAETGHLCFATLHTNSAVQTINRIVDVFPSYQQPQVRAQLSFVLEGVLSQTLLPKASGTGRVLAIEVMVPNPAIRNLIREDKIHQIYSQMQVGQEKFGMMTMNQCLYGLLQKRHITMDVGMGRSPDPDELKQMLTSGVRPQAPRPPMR

Compound | X-ray crystal structure (OCOCOC) [1] | X-ray crystal structure (anisotropic, about 4.0 A) [2]
Nc1ncnc2c1ncn2[C@@H]1O[C@H](COP(=O)(O)OP(=O)(O)O)[C@@H](O)[C@H]1O [ADP] | An isomorphous structure with high ADP occupancy was obtained | 
Nc1ncnc2c1ncn2[C@@H]1O[C@H](COP(=O)(O)OP(=O)(O)NP(=O)(O)O)[C@@H](O)[C@H]1O [ANP] |  | density consistent with ANP could be modeled into four of the six nucleotide-binding sites
